Data reported in ChEMBL document CHEMBL1133780, “Synthesis and antiparasitic activity of 2-(trifluoromethyl)-benzimidazole derivatives” (Bioorg Med Chem Lett, 2001).

Legend:
Entamoeba histolytica = assay: In vitro antiprotozoal activity against Entamoeba histolytica; format: functional, organism-based
Giardia intestinalis = assay: In vitro antiprotozoal activity against Giardia lamblia; format: functional, organism-based; conditions: Giardia duodenalis
Rattus norvegicus [1] = species: Rattus norvegicus; assay: Tested for inhibition of tubulin polymerization in rat brain at a concentration of 3*10e-3 uM; format: functional
Trichinella spiralis [2] = assay: Percent reduction of viability of Trichinella spiralis muscle larvae at a concentration of 3*10e-5 uM; format: functional
Rattus norvegicus [3] = species: Rattus norvegicus; assay: Tested for inhibition of tubulin polymerization in rat brain at a concentration of 3*10e-5 uM; format: functional
Rattus norvegicus [4] = species: Rattus norvegicus; assay: Tested for inhibition of tubulin polymerization in rat brain at a concentration of 0.015 uM; format: functional
Rattus norvegicus [5] = species: Rattus norvegicus; assay: Tested for inhibition of tubulin polymerization in rat brain at a concentration of 0.024 uM; format: functional
Trichinella spiralis [6] = assay: Percent reduction of viability of Trichinella spiralis muscle larvae at a concentration of 3*10e-3 uM; format: functional
Trichinella spiralis [7] = assay: Percent reduction of viability of Trichinella spiralis muscle larvae at a concentration of 3*10e-6 uM; format: functional
Trichinella spiralis [8] = assay: Percent reduction of viability of Trichinella spiralis muscle larvae at a concentration of 3*10e-4 uM; format: functional
Trichinella spiralis [9] = assay: Percent reduction of viability of Trichinella spiralis muscle larvae at a concentration of 3*10e-6 uM; No reduction observed; format: functional, organism-based
Trichinella spiralis [10] = assay: Percent reduction of viability of Trichinella spiralis muscle larvae at a concentration of 3*10e-4 uM; No reduction observed; format: functional, organism-based
Trichinella spiralis [11] = assay: Percent reduction of viability of Trichinella spiralis muscle larvae at a concentration of 3*10e-5 uM; No reduction observed; format: functional, organism-based
Trichinella spiralis [12] = assay: Percent reduction of viability of Trichinella spiralis muscle larvae at a concentration of 3*10e-3 uM; No reduction observed; format: functional, organism-based

| Structure (SMILES) | IC50 (Entamoeba histolytica) | IC50 (Giardia intestinalis) | Viscosity (Rattus norvegicus [1]) | Reduction (Trichinella spiralis [2]) | Viscosity (Rattus norvegicus [3]) | Viscosity (Rattus norvegicus [4]) | Viscosity (Rattus norvegicus [5]) | Reduction (Trichinella spiralis [6]) | Reduction (Trichinella spiralis [7]) | Reduction (Trichinella spiralis [8]) | Reduction (Trichinella spiralis [9]) | Reduction (Trichinella spiralis [10]) | Reduction (Trichinella spiralis [11]) | Reduction (Trichinella spiralis [12]) |
| --- | --- | --- | --- | --- | --- | --- | --- | --- | --- | --- | --- | --- | --- | --- |
| Cn1c(C(F)(F)F)nc2cc(Cl)ccc21 | 46 nM | 42 nM | 7.58 | 9% | 7.3 | 6.94 | 7.54 | 39% | 2% | 16% | – | – | – | – |
| FC(F)(F)c1nc2cc(Cl)c(Cl)cc2[nH]1 | 11 nM | 78 nM | 7.03 | 1% | 7 | 6.68 | 7.22 | 19% | – | 9% | No reduction | – | – | – |
| Cn1c(C(F)(F)F)nc2ccc(Cl)cc21 | 8 nM | 127 nM | 7.39 | – | 6.44 | 7.07 | 7.26 | – | – | – | No reduction | No reduction | No reduction | No reduction |
| Cn1c(C(F)(F)F)nc2ccccc21 | 40 nM | 64 nM | 7.41 | 1% | 6.68 | 7.31 | 7.16 | 12% | – | 9% | No reduction | – | – | – |
| CCCSc1ccc2[nH]c(NC(=O)OC)nc2c1 [ALBENDAZOLE] | 56300 nM | 37 nM | 2.07 | 13% | 7.04 | – | – | 30% | 6% | 20% | – | – | – | – |
| Cn1c(C(F)(F)F)nc2cc(Cl)c(Cl)cc21 | 33 nM | 260 nM | 7.63 | 4% | 6.93 | 6.63 | 6.94 | 15% | 2% | 9% | – | – | – | – |
| Cc1ncc([N+](=O)[O-])n1CCO [METRONIDAZOLE] | 350 nM | 1220 nM | – | – | – | – | – | – | – | – | – | – | – | – |
| FC(F)(F)c1nc2cc(Cl)ccc2[nH]1 | 22 nM | 1280 nM | 6.7 | – | 6.59 | 7.14 | 6.47 | – | – | – | No reduction | No reduction | No reduction | No reduction |
| FC(F)(F)c1nc2ccccc2[nH]1 | 69 nM | 107 nM | 7.56 | 1% | 7.55 | 7.34 | 6.92 | 9% | – | 3% | No reduction | – | – | – |
